This passage reports EC50 results from patent US7842324B2 (Senomyx, Inc., priority 2005, dated 2010).

SMILES strings stand for the structures. pEC50: −log10 of the molar value.

The target of the first test is T1, hT1R2/hT1R3 sweet receptor expressed in HEK293 cell line (Homo sapiens, UniProt Q7RTX0+Q8TE23).
T1 construct: expressed in transfected cells; host or cells: HEK293 derivative stably expressing Gα15 and hT1R2/hT1R3, clone S-9
T1 sequence (Q8TE23 20-839): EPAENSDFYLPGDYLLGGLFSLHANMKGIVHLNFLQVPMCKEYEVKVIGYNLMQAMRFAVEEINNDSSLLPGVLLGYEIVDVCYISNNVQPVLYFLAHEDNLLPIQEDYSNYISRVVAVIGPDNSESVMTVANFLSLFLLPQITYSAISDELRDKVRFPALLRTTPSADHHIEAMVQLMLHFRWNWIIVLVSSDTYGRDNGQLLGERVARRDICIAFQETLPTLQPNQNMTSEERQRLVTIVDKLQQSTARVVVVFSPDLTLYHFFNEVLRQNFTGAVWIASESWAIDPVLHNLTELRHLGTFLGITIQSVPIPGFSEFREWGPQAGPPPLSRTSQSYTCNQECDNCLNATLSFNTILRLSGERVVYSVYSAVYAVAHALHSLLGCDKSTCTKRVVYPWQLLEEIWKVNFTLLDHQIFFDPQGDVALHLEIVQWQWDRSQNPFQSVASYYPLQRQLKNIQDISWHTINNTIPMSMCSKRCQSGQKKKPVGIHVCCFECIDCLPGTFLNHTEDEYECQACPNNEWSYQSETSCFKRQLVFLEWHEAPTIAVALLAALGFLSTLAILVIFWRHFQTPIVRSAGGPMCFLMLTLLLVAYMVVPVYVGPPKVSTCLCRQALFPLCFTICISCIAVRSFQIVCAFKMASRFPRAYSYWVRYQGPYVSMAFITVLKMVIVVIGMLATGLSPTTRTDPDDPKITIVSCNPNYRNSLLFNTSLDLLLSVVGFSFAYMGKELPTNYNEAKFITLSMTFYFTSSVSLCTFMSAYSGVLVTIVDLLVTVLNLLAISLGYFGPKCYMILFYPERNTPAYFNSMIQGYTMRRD
T1 sequence (Q7RTX0 21-852): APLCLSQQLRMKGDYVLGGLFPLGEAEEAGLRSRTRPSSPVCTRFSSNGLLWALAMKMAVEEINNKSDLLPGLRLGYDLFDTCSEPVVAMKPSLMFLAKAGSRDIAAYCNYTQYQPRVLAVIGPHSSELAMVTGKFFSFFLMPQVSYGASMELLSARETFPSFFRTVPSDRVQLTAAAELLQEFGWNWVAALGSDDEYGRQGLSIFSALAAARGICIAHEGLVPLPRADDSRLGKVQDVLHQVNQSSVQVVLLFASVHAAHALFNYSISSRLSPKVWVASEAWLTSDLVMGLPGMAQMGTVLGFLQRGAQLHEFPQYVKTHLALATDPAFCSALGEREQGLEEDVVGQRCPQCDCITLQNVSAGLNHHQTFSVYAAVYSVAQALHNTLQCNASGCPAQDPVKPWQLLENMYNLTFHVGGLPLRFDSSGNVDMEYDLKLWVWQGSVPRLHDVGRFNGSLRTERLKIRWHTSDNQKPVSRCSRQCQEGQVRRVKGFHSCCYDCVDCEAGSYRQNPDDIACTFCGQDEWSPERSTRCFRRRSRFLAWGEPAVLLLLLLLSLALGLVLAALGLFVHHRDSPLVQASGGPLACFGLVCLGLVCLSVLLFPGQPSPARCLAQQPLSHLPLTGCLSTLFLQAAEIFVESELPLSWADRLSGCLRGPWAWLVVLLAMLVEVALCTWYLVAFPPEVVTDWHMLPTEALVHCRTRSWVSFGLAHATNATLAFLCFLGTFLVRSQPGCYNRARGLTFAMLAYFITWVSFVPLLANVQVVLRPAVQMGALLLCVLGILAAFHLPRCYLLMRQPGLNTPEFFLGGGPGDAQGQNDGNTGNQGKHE
The experiment in a line: In vitro hT1R2/hT1R3-HEK293 taste receptor activation assay (FLIPR). Format: cell-based. The conditions noted are these: Table A; read-out: SWEET EC50. As for the experimental part:
An HEK293 cell line derivative (Chandrashekar et al., Cell (2000) 100:703-711) that stably expresses Gα15 and hT1R2/hT1R3 (Li et al., Proc Natl Acad Sci USA (2002) 99:4692-4696), see also PCT Publication No. WO 03/001876 A2) was used to identify compounds with sweet taste enhancing properties.
Compounds covered in this document were initially selected based on their activity on the hT1R2/hT1R3-HEK293-Gα15 cell line (Li et al. vide supra). Activity was determined using an automated fluorometric imaging assay on a FLIPR instrument ([…], Molecular Devices, Sunnyvale, Calif.) (designated FLIPR assay). Cells from one clone (designated S-9 cells) were seeded into 384-well plates (at approximately 50,000 cells per well) in a medium containing DMEM Low Glucose (Invitrogen, Carlsbad, Calif.), 10% dialyzed fetal bovine serum (Invitrogen, Carlsbad, Calif.), 100 Units/ml Penicillin G, and 100 μg/ml Streptomycin (Invitrogen, Carlsbad, Calif.) (Li et al. vide supra) see also PCT Publication No. WO 03/001876 A2). S-9 cells were grown for 24 hours at 37° C. S-9 cells were then loaded with the calcium dye Fluo-3AM (Molecular Probes, Eugene, Oreg.), 4 μM in a phosphate buffered saline (D-PBS) (Invitrogen, Carlsbad, Calif.), for 1 hour at room temperature. After replacement with 25 μl D-PBS, stimulation was performed in the FLIPR instrument and at room temperature by the addition of 25 μl D-PBS supplemented with different stimuli at concentrations corresponding to twice the desired final level. Receptor activity was quantified by determining the maximal fluorescence increases (using a 480 nm excitation and 535 nm emission) after normalization to basal fluorescence intensity measured before stimulation.
For dose-responses analysis, stimuli were presented in duplicates at 10 different concentrations ranging from 60 nM to 30 μM. Activities were normalized to the response obtained with 400 mM D-fructose, a concentration that elicits maximum receptor response. EC50s were determined using a non-linear regression algorithm (using a Senomyx, Inc. software), where the Hill slope, bottom asymptotes and top asymptotes were allow to vary. Identical results were obtained when analyzing the dose-response data using commercially available software for non-linear regression analysis such as GraphPad PRISM (San Diego, Calif.).
`CC(C)CNC(=O)C(C)c1ccc(-c2cccc(F)c2)cc1` (stereo not drawn) [Compound A6]: the pEC50 was 5.74.

Regarding `CC(C)CNC(=O)C(C)(C)c1ccc(-c2cncc(OC(C)C)c2)cc1` [Compound A87], the pEC50 is 6.68.

As to `CC(C)CNC(=O)C(C)(C)c1ccc(-c2cccnc2)cc1` [Compound A56], the pEC50 was 6.11.

With `COCc1cccc(-c2ccc(C(C)(C)C(=O)NCC(C)C)cn2)c1` [Compound A31], the pEC50 was 5.42.

With `CCC(C)NC(=O)[C@@H](C)c1ccc(-c2ccccc2)c(F)c1` (stereo partly drawn) [Compound A2], the pEC50 is 5.62.

With `CCC(COC)NC(=O)C(C)(C)c1ccc(-c2cncc(C#N)c2)cc1` (stereo not drawn) [Compound A62], the pEC50 is 5.91.

Take `CC(C)(C(=O)NC1CCC1)c1ccc(-c2cncc(C#N)c2)cc1` [Compound A51]: the pEC50 was 6.39.

`CC(NC(=O)C(C)(C)c1ccc(-c2cncc(C#N)n2)cc1)c1ccco1` (stereo not drawn) [Compound A42]: the pEC50 is 7.00.

For `CC(C)[C@@H](C)NC(=O)C(C)(C)c1ccc(-c2cncc(C#N)n2)cc1` [Compound A44], the pEC50 was 6.68.

As to `CC(C)(C(=O)NC1CCC1)c1ccc(-c2cncc(C#N)n2)cc1` [Compound A49], the pEC50 was 6.43.

Turning to `CCOc1cncc(-c2ccc(C(C)(C)C(=O)NCC(C)C)cc2)c1` [Compound A68], the pEC50 was 5.80.

On to `CCCNC(=O)C(C)(C)c1ccc(-c2cncc(C#N)c2)cc1` [Compound A90], for which the pEC50 is 6.32.

For the compound `CC(C)CNC(=O)C(C)(C)c1ccc(-c2ccncn2)cc1` [Compound A33], the pEC50 is 5.27.

With `CC(C(=O)NC1CC1)c1ccc(-c2ccccc2)c(F)c1` (stereo not drawn) [Compound A1], the pEC50 is 5.45.

Regarding `CC(C)CNC(=O)C(C)(C)c1ccc(-c2cccc(C=O)c2)cc1` [Compound A37], the pEC50 was 6.12.

`CC[C@H](CO)NC(=O)C(C)(C)c1ccc(-c2ccccc2)cc1` [Compound A60]: the pEC50 is 5.96.

In the case of `CCC(C)CNC(=O)C(C)(C)c1ccc(-c2cncc(C#N)n2)cc1` (stereo not drawn) [Compound A41], the pEC50 was 7.30.

In the case of `CC(C)CNC(=O)C(C)(C)c1ccc(-c2ccccc2)cc1` [Compound A36], the pEC50 is 5.89.

As to `Cc1cscc1-c1ccc(C(C)(C)C(=O)NCC(C)C)cn1` [Compound A59], the pEC50 is 5.98.

For the compound `CC(C)CNC(=O)C(C)c1ccc(-c2ccccc2)cc1` (stereo not drawn) [Compound A5], the pEC50 is 5.37.

Turning to `CCC(CC)CNC(=O)C(C)(C)c1ccc(-c2cncc(C#N)c2)cc1` [Compound A91], the pEC50 was 6.21.

Turning to `CC[C@H](C)NC(=O)C(C)(C)c1ccc(-c2cncc(COC)c2)cc1` [Compound A64], the pEC50 is 5.89.

Take `CCC(C)CNC(=O)C(C)(C)c1ccc(-c2cncc(COC)c2)cc1` (stereo not drawn) [Compound A70]: the pEC50 was 6.29.

For the compound `CC(C)CNC(=O)Cc1ccc(-c2ccccc2)c(F)c1` [Compound A8], the pEC50 is 5.12.

Turning to `CC(C)CNC(=O)Cc1ccc(-c2ccccc2)cc1` [Compound A39], the pEC50 is 5.81.

For the compound `COCOCc1c(C=O)cccc1-c1ccc(C(C)(C)C(=O)NCC(C)C)cc1` [Compound A23], the pEC50 was 5.96.

Regarding `CC(C)(C(=O)NC[C@@H]1CCCO1)c1ccc(-c2cncc(C#N)c2)cc1` [Compound A27], the pEC50 is 5.69.

For the compound `COc1cc(C(C)(C)C(=O)NCC(C)C)ccc1-c1ccccc1` [Compound A76], the pEC50 is 6.02.

Staying with this test, now noted: read-out: EC50 for activation of a hT1R2/hT1R3 sweet receptor expressed in HEK293 cell line.
Turning to `CC(C)CNC(=O)C(C)(C)c1ccc(-c2ccccc2C=O)cc1` [Compound 37, 2-(2′-formylbiphenyl-4-yl)-N-isobutyl-2-methylpropanamide], the pEC50 is 6.09.

Turning to `CC(NC(=O)C(C)(C)c1ccc(-c2cncc(C#N)n2)cc1)c1ccco1` (stereo not drawn) [Compound 48, 2-(4-(6-cyanopyrazin-2-yl)phenyl)-N-(1-(furan-2-yl)ethyl)-2-methylpropanamide], the pEC50 is 6.72.

With `CCOC(=O)c1cccc(-c2ccc(C(C)(C)C(=O)NCC(C)C)cc2)c1` [Compound 16, Ethyl 4′-(1-(isobutylamino)-2-methyl-1-oxopropan-2-yl)biphenyl-3-carboxylate], the pEC50 is 5.59.

Take `CC(C)CNC(=O)C(C)(C)c1ccc(-c2ccccc2N)cc1` [Compound 13, 2-(2′-aminobiphenyl-4-yl)-N-isobutyl-2-methylpropanamide]: the pEC50 is 5.66.

For the compound `COCc1cncc(-c2ccc(C(C)(C)C(=O)NCC(C)C)cc2)n1` [Compound 29, N-isobutyl-2-(4-(6-(methoxymethyl)pyrazin-2-yl)phenyl)-2-methylpropanamide], the pEC50 was 6.59.

As to `CC(C)[C@@H](C)NC(=O)C(C)(C)c1ccc(-c2cncc(C#N)c2)cc1` [Compound 22], the pEC50 was 6.85.

With `Cc1cccc(-c2ccc(C(C)(C)C(=O)NCC(C)C)cc2)c1` [Compound 15, N-isobutyl-2-methyl-2-(3′-methylbiphenyl-4-yl)propanamide], the pEC50 is 5.52.

With `CC(C)CNC(=O)C(NC(=O)OC(C)(C)C)c1ccc(-c2ccccc2)cc1` (stereo not drawn) [Compound 24, tert-butyl 1-(biphenyl-4-yl)-2-(isobutylamino)-2-oxoethylcarbamate], the pEC50 is 5.12.

Regarding `CC(C)CNC(=O)C(C)(C)c1ccc(-c2ccccc2CO)cc1` [Compound 36, 2-(2′-(hydroxymethyl)biphenyl-4-yl)-N-isobutyl-2-methylpropanamide], the pEC50 is 5.98.

`CC(C)CNC(=O)C(C)(C)c1ccc(-c2cccc([N+](=O)[O-])c2)cc1` [Compound 8, N-isobutyl-2-methyl-2-(3′-nitrobiphenyl-4-yl)propanamide]: the pEC50 was 6.40.

For the compound `Cc1ccccc1-c1ccc(C(C)(C)C(=O)NCC(C)C)cc1` [Compound 12, N-isobutyl-2-methyl-2-(2′-methylbiphenyl-4-yl)propanamide], the pEC50 was 5.72.
